Key:
Type in all cases: in vivo
[1] = tested on: Ipomoea hederacea (IPOHE); test: Post-emergence herbicidal glasshouse test on Ipomoea hederacea; conditions: post-emergence; 1000 g/h; evaluated after 13 days
Method in brief: (§1)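 Scored on a five-point scale (1 = 0-19% to 5 = 80-100% damage) 13 days after treatment. Application rate 1000 g/h in acetone/water (50:50) containing 0.5% Tween 20, sprayed one day post-sowing for pre-emergence or eight days for post-emergence; glasshouse at 24/16° C, 14 h light, 65% humidity.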

[2] = tested on: Amaranthus retoflexus (AMARE); test: Post-emergence herbicidal glasshouse test on Amaranthus retoflexus; conditions: post-emergence; 1000 g/h; evaluated after 13 days
Method in brief: as §1

[3] = tested on: Alopecurus myosuroides (ALOMY); test: Post-emergence herbicidal glasshouse test on Alopecurus myosuroides; conditions: post-emergence; 1000 g/h; evaluated after 13 days
Method in brief: as §1

Solanum nigrum (SOLNI) [4] = test: Pre-emergence herbicidal glasshouse test on Solanum nigrum; conditions: pre-emergence; 1000 g/h; evaluated after 13 days
Method in brief: as §1

[5] = tested on: Amaranthus retoflexus (AMARE); test: Pre-emergence herbicidal glasshouse test on Amaranthus retoflexus; conditions: pre-emergence; 1000 g/h; evaluated after 13 days
Method in brief: as §1

[6] = tested on: Echinochloa crus-galli (ECHCG); test: Pre-emergence herbicidal glasshouse test on Echinochloa crus-galli; conditions: pre-emergence; 1000 g/h; evaluated after 13 days
Method in brief: as §1

Setaria faberi (SETFA) [7] = test: Pre-emergence herbicidal glasshouse test on Setaria faberi; conditions: pre-emergence; 1000 g/h; evaluated after 13 days
Method in brief: as §1

[8] = tested on: Ipomoea hederacea (IPOHE); test: Pre-emergence herbicidal glasshouse test on Ipomoea hederacea; conditions: pre-emergence; 1000 g/h; evaluated after 13 days
Method in brief: as §1

[9] = tested on: Alopecurus myosuroides (ALOMY); test: Pre-emergence herbicidal glasshouse test on Alopecurus myosuroides; conditions: pre-emergence; 1000 g/h; evaluated after 13 days
Method in brief: as §1

[10] = tested on: Echinochloa crus-galli (ECHCG); test: Post-emergence herbicidal glasshouse test on Echinochloa crus-galli; conditions: post-emergence; 1000 g/h; evaluated after 13 days
Method in brief: as §1

Setaria faberi (SETFA) [11] = test: Post-emergence herbicidal glasshouse test on Setaria faberi; conditions: post-emergence; 1000 g/h; evaluated after 13 days
Method in brief: as §1

Solanum nigrum (SOLNI) [12] = test: Post-emergence herbicidal glasshouse test on Solanum nigrum; conditions: post-emergence; 1000 g/h; evaluated after 13 days
Method in brief: as §1

| Compound | POST Application IPOHE herbicidal damage (five point scale) [1] | POST Application AMARE herbicidal damage (five point scale) [2] | POST Application ALOMY herbicidal damage (five point scale) [3] | PRE Application SOLNI herbicidal damage (five point scale) (Solanum nigrum (SOLNI) [4]) | PRE Application AMARE herbicidal damage (five point scale) [5] | PRE Application ECHCG herbicidal damage (five point scale) [6] | PRE Application SETFA herbicidal damage (five point scale) (Setaria faberi (SETFA) [7]) | PRE Application IPOHE herbicidal damage (five point scale) [8] | PRE Application ALOMY herbicidal damage (five point scale) [9] | POST Application ECHCG herbicidal damage (five point scale) [10] | POST Application SETFA herbicidal damage (five point scale) (Setaria faberi (SETFA) [11]) | POST Application SOLNI herbicidal damage (five point scale) (Solanum nigrum (SOLNI) [12]) |
| --- | --- | --- | --- | --- | --- | --- | --- | --- | --- | --- | --- | --- |
| Cn1ncc(-c2ccc(C(F)(F)F)cc2S(C)(=O)=O)c(O)c1=O [Compound 1.028, 4-hydroxy-2-methyl-5-[2-methylsulfonyl-4-(trifluoromethyl)phenyl]pyridazin-3-one] | 5 (5=80-100% damage) | 5 (5=80-100% damage) | 5 (5=80-100% damage) | 5 (5=80-100% damage) | 5 (5=80-100% damage) | 5 (5=80-100% damage) | 5 (5=80-100% damage) | 5 (5=80-100% damage) | 5 (5=80-100% damage) | 5 (5=80-100% damage) | 5 (5=80-100% damage) | 5 (5=80-100% damage) |
| Cn1ncc(-c2ccc(C(F)(F)F)cc2[S+](C)[O-])c(O)c1=O (stereo not drawn) [Compound 1.029] | 5 (5=80-100% damage) | 5 (5=80-100% damage) | 5 (5=80-100% damage) | 5 (5=80-100% damage) | 5 (5=80-100% damage) | 5 (5=80-100% damage) | 5 (5=80-100% damage) | 5 (5=80-100% damage) | 5 (5=80-100% damage) | 5 (5=80-100% damage) | 5 (5=80-100% damage) | 5 (5=80-100% damage) |
| Cn1ncc(-c2ccc(S(C)(=O)=O)c3c2COC3)c(O)c1=O [Compound 1.030] | 3 (3=40-59% damage) | 5 (5=80-100% damage) | 1 (1=0-19% damage) | 4 (4=60-79% damage) | 5 (5=80-100% damage) | 2 (2=20-39% damage) | 1 (1=0-19% damage) | 1 (1=0-19% damage) | 1 (1=0-19% damage) | 4 (4=60-79% damage) | 2 (2=20-39% damage) | 5 (5=80-100% damage) |
| Cc1cc(-c2cnn(C)c(=O)c2O)c(C)c2c1S(=O)(=O)CCC21OCCO1 [Compound 1.031] | 5 (5=80-100% damage) | 5 (5=80-100% damage) | 2 (2=20-39% damage) | 2 (2=20-39% damage) | 5 (5=80-100% damage) | 5 (5=80-100% damage) | 4 (4=60-79% damage) | 1 (1=0-19% damage) | 1 (1=0-19% damage) | 5 (5=80-100% damage) | 5 (5=80-100% damage) | 5 (5=80-100% damage) |
| Cn1ncc(-c2ccc(S(C)(=O)=O)c(C3=NOCC3)c2Cl)c(O)c1=O [Compound 1.032] | 5 (5=80-100% damage) | 5 (5=80-100% damage) | 5 (5=80-100% damage) | 5 (5=80-100% damage) | 5 (5=80-100% damage) | 5 (5=80-100% damage) | 5 (5=80-100% damage) | 4 (4=60-79% damage) | 5 (5=80-100% damage) | 5 (5=80-100% damage) | 5 (5=80-100% damage) | 5 (5=80-100% damage) |
| Cn1ncc(-c2ccc(C(F)(F)F)cc2C(F)(F)F)c(O)c1=O [Compound 1.033] | 5 (5=80-100% damage) | 5 (5=80-100% damage) | 2 (2=20-39% damage) | 5 (5=80-100% damage) | 5 (5=80-100% damage) | 2 (2=20-39% damage) | 1 (1=0-19% damage) | 1 (1=0-19% damage) | 1 (1=0-19% damage) | 2 (2=20-39% damage) | 1 (1=0-19% damage) | 5 (5=80-100% damage) |
| COCCOc1c(S(C)(=O)=O)ccc(-c2cnn(C)c(=O)c2O)c1Cl [Compound 1.034] | 5 (5=80-100% damage) | 5 (5=80-100% damage) | 4 (4=60-79% damage) | 5 (5=80-100% damage) | 5 (5=80-100% damage) | 5 (5=80-100% damage) | 5 (5=80-100% damage) | 3 (3=40-59% damage) | 2 (2=20-39% damage) | 5 (5=80-100% damage) | 5 (5=80-100% damage) | 5 (5=80-100% damage) |
| Cc1c(-c2cnn(C)c(=O)c2O)ccc2c1C(=O)N(C)S2(=O)=O [Compound 1.035] | 5 (5=80-100% damage) | 5 (5=80-100% damage) | 2 (2=20-39% damage) | 3 (3=40-59% damage) | 5 (5=80-100% damage) | 5 (5=80-100% damage) | 1 (1=0-19% damage) | 4 (4=60-79% damage) | 1 (1=0-19% damage) | 5 (5=80-100% damage) | 1 (1=0-19% damage) | 5 (5=80-100% damage) |
| Cn1ncc(-c2ccccc2[S+](C)[O-])c(O)c1=O (stereo not drawn) [Compound 1.036] | 5 (5=80-100% damage) | 5 (5=80-100% damage) | 5 (5=80-100% damage) | 1 (1=0-19% damage) | 3 (3=40-59% damage) | 2 (2=20-39% damage) | 2 (2=20-39% damage) | 1 (1=0-19% damage) | 3 (3=40-59% damage) | 5 (5=80-100% damage) | 5 (5=80-100% damage) | 5 (5=80-100% damage) |

From patent US9693556B2, “Herbicidal pyridazinone derivatives” (SYNGENTA LIMITED, priority 2011, dated 2017)
